Test results from publication PMC11822212, “High-throughput screening identifies Aurora kinase B as a critical therapeutic target for Merkel cell carcinoma” (Nature Communications, 2025).
Like-named read-outs stand apart in the source and are kept apart here.

How the values were obtained:
[1] = test system: UISO cells (VN-MCC); test: qHTS cell viability (CellTiter-Glo, 72 h; primary and follow-up small molecule screen); type: cell-based, human
[2] = test system: control cell lines (HACAT, HEK293T, CRL-7250, NIH-3T3); test: qHTS cell viability, control cell lines as a group (mean AUC, Control.avg); type: cell-based
[3] = test system: HACAT cells; test: qHTS cell viability (CellTiter-Glo, 72 h; primary screen), control cell line; type: cell-based, human
[4] = test system: MKL-2 cells (VP-MCC); test: qHTS cell viability (CellTiter-Glo, 72 h; primary and follow-up small molecule screen); type: cell-based, human
[5] = test system: six MCC cell lines and four control cell lines; test: qHTS cell viability, all 10 cell lines screened; type: cell-based
[6] = test system: VN-MCC cell lines (MCC13, MCC26, UISO); test: qHTS cell viability, VN-MCC cell lines as a group (mean AUC, VN.MCC.avg); type: cell-based, human
[7] = test system: MCC26 cells (VN-MCC); test: qHTS cell viability (CellTiter-Glo, 72 h; primary and follow-up small molecule screen); type: cell-based, human
[8] = test system: CRL-7250 cells; test: qHTS cell viability (CellTiter-Glo, 72 h; primary screen), control cell line; type: cell-based
[9] = test system: MCC cell lines (WAGA, MKL-1, MKL-2, MCC13, MCC26, UISO); test: qHTS cell viability, all six MCC cell lines as a group (mean AUC, MCC.avg); type: cell-based, human
[10] = test system: VP-MCC cell lines (WAGA, MKL-1, MKL-2); test: qHTS cell viability, VP-MCC cell lines as a group (mean AUC, VP.MCC.avg); type: cell-based, human
[11] = test system: WAGA cells (VP-MCC); test: qHTS cell viability (CellTiter-Glo, 72 h; primary and follow-up small molecule screen); type: cell-based, human
[12] = test system: HEK293T cells; test: qHTS cell viability (CellTiter-Glo, 72 h; primary screen), control cell line; type: cell-based, human
[13] = test system: NIH-3T3 cells; test: as above; type: cell-based, mouse
[14] = test system: MCC13 cells (VN-MCC); test: qHTS cell viability (CellTiter-Glo, 72 h; primary and follow-up small molecule screen); type: cell-based, human
[15] = test system: MKL-1 cells (VP-MCC); test: as above; type: cell-based, human
[16] = NPC library, qHTS dose-response AUC, UISO
[17] = NPC library, mean AUC of control cell lines
[18] = NPC library, qHTS dose-response AUC, HACAT control
[19] = NPC library, qHTS dose-response AUC, MKL2
[20] = NPC library, therapeutic window: Control avg AUC minus MCC avg AUC
[21] = NPC library, mean AUC of VN-MCC cell lines
[22] = NPC library, therapeutic window: Control avg AUC minus VN-MCC avg AUC
[23] = NPC library, qHTS dose-response AUC, MCC26
[24] = NPC library, qHTS dose-response AUC, CRL7250 control
[25] = NPC library, mean AUC of six MCC cell lines
[26] = NPC library, mean AUC of VP-MCC cell lines
[27] = NPC library, therapeutic window: Control avg AUC minus VP-MCC avg AUC
[28] = NPC library, qHTS dose-response AUC, WAGA
[29] = NPC library, qHTS dose-response AUC, HEK293T control
[30] = NPC library, qHTS dose-response AUC, NIH3T3 control
[31] = NPC library, qHTS dose-response AUC, MCC13
[32] = NPC library, qHTS dose-response AUC, MKL1

O=C(CCCN1CCC(O)(c2ccc(Br)cc2)CC1)c1ccc(F)cc1 [Bromperidol]
UISO_AUC [1, 16]: 465.264
UISO_AUC ([1]; area under the dose-response curve, UISO cells, AUC<450 = reduced viability): 465.264
Area under the dose-response curve (AUC) UISO Replicate 1 ([1]; follow-up screen, UISO, replicate 1): 462.9
Area under the dose-response curve (AUC) UISO Replicate 2 ([1]; follow-up screen, UISO, replicate 2): 471.4
Area under the dose-response curve (AUC) UISO Replicate 3 ([1]; follow-up screen, UISO, replicate 3): 450.6
Control_Avg_AUC [2, 17]: 466.662
HACAT_AUC [3, 18]: 453.423
HACAT_AUC ([3]; area under the dose-response curve, HACAT control cells, AUC<450 = reduced viability): 453.423
MKL2_AUC [4, 19]: 116.273
MKL2_AUC ([4]; area under the dose-response curve, MKL-2 cells, AUC<450 = reduced viability): 116.273
Area under the dose-response curve (AUC) MKL-2 Replicate 1 ([4]; follow-up screen, MKL-2, replicate 1): 432.2
Area under the dose-response curve (AUC) MKL-2 Replicate 2 ([4]; follow-up screen, MKL-2, replicate 2): 463.9
Area under the dose-response curve (AUC) MKL-2 Replicate 3 ([4]; follow-up screen, MKL-2, replicate 3): 462.5
Control-MCC [5, 20]: 161.551
VN-MCC_Avg_AUC [6, 21]: 488.845
Control-VN-MCC [6, 22]: -22.1834
MCC26_AUC [7, 23]: 508.837
MCC26_AUC ([7]; area under the dose-response curve, MCC26 cells, AUC<450 = reduced viability): 508.837
Area under the dose-response curve (AUC) MCC26 Replicate 1 ([7]; follow-up screen, MCC26, replicate 1): 451.5
Area under the dose-response curve (AUC) MCC26 Replicate 2 ([7]; follow-up screen, MCC26, replicate 2): 430.2
Area under the dose-response curve (AUC) MCC26 Replicate 3 ([7]; follow-up screen, MCC26, replicate 3): 459.8
CRL7250_AUC [8, 24]: 469.585
CRL7250_AUC ([8]; area under the dose-response curve, CRL7250 control cells, AUC<450 = reduced viability): 469.584
MCC_Avg_AUC [9, 25]: 305.111
VP-MCC_Avg_AUC [10, 26]: 121.377
Control-VP-MCC [10, 27]: 345.285
WAGA_AUC [11, 28]: 81.0002
WAGA_AUC ([11]; area under the dose-response curve, WAGA cells, AUC<450 = reduced viability): 81.0002
Area under the dose-response curve (AUC) WAGA Replicate 1 ([11]; follow-up screen, WAGA, replicate 1): 490.2
Area under the dose-response curve (AUC) WAGA Replicate 2 ([11]; follow-up screen, WAGA, replicate 2): 473.6
Area under the dose-response curve (AUC) WAGA Replicate 3 ([11]; follow-up screen, WAGA, replicate 3): 491.6
HEK293T_AUC [12, 29]: 458.67
HEK293T_AUC ([12]; area under the dose-response curve, HEK293T control cells, AUC<450 = reduced viability): 458.67
NIH3T3_AUC [13, 30]: 484.97
NIH3T3_AUC ([13]; area under the dose-response curve, NIH3T3 control cells, AUC<450 = reduced viability): 484.97
MCC13_AUC [14, 31]: 492.435
MCC13_AUC ([14]; area under the dose-response curve, MCC13 cells, AUC<450 = reduced viability): 492.435
Area under the dose-response curve (AUC) MCC13 Replicate 1 ([14]; follow-up screen, MCC13, replicate 1): 481.5
Area under the dose-response curve (AUC) MCC13 Replicate 2 ([14]; follow-up screen, MCC13, replicate 2): 447.1
Area under the dose-response curve (AUC) MCC13 Replicate 3 ([14]; follow-up screen, MCC13, replicate 3): 475.2
MKL1_AUC [15, 32]: 166.857
MKL1_AUC ([15]; area under the dose-response curve, MKL-1 cells, AUC<450 = reduced viability): 166.857
Area under the dose-response curve (AUC) MKL-1 Replicate 1 ([15]; follow-up screen, MKL-1, replicate 1): 478.5
Area under the dose-response curve (AUC) MKL-1 Replicate 2 ([15]; follow-up screen, MKL-1, replicate 2): 458.4
Area under the dose-response curve (AUC) MKL-1 Replicate 3 ([15]; follow-up screen, MKL-1, replicate 3): 486.1

Cl.Oc1ccc2c3c1O[C@H]1[C@@H](O)C=C[C@H]4[C@@H](C2)NCC[C@@]341 [N-Normorphine hydrochloride]
UISO_AUC [1]: 440.259
Control_Avg_AUC [2]: 483.566
HACAT_AUC [3]: 477.868
MKL2_AUC [4]: 420.551
Control-MCC [5]: 55.7462
Control-VN-MCC [6]: 45.2651
VN-MCC_Avg_AUC [6]: 438.301
MCC26_AUC [7]: 408.273
CRL7250_AUC [8]: 485.195
MCC_Avg_AUC [9]: 427.82
Control-VP-MCC [10]: 66.2273
VP-MCC_Avg_AUC [10]: 417.339
WAGA_AUC [11]: 412.634
HEK293T_AUC [12]: 480.826
NIH3T3_AUC [13]: 490.376
MCC13_AUC [14]: 466.371
MKL1_AUC [15]: 418.832

CCOC(=O)[C@H](CCc1ccccc1)N[C@@H](C)C(=O)N1CCC[C@H]1C(=O)O [Enalapril]
UISO_AUC [1, 16]: 518.678
Control_Avg_AUC [2, 17]: 477.153
HACAT_AUC [3, 18]: 446.912
MKL2_AUC [4, 19]: 179.263
Control-MCC [5, 20]: 89.4069
VN-MCC_Avg_AUC [6, 21]: 510.759
Control-VN-MCC [6, 22]: -33.606
MCC26_AUC [7, 23]: 507.531
CRL7250_AUC [8, 24]: 492.563
MCC_Avg_AUC [9, 25]: 387.746
VP-MCC_Avg_AUC [10, 26]: 264.734
Control-VP-MCC [10, 27]: 212.42
WAGA_AUC [11, 28]: 302.495
HEK293T_AUC [12, 29]: 487.46
NIH3T3_AUC [13, 30]: 481.677
MCC13_AUC [14, 31]: 506.069
MKL1_AUC [15, 32]: 312.443
